Where a SMILES comes first, the peptide text is derived from it.
Tests used:
P. aeruginosa PAO1 = test: microbe, parasite or virus in culture; format: cell-based, Pseudomonas aeruginosa; settings: P. aeruginosa PAO1 (S)
How it was run: (§1)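 Peptides 128→2 μg/mL, 2-fold series; inoculum ~5 × 10^5 CFU/mL from overnight culture (OD600 0.01, mixed 1:1). MHB non-cation-adjusted for bacteria, RPMI 1640 + 2% glucose for fungi. 37 °C, 20 h, OD600. MIC50/MIC90 at 50%/90% inhibition; n ≥ 3.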

C. auris TDG 1912 = test: microbe, parasite or virus in culture; format: cell-based, Candida auris
How it was run: as §1

[1] = RP-HPLC ElutionTime as indicator of hydrophobicity; format: physicochemical; settings: indicator of overall hydrophobicity; semipreparative RP-HPLC, Waters SymmetryPrep C8, water/ACN gradient with 0.1% TFA, 8 mL/min, 25 °C, 254 nm
Procedure: Crude peptides, made up to 10 mg/mL in 0.1% TFA (v/v) in ddH2O, were subjected to preparative RP-HPLC purification on an Agilent 1100 system, with elution in gradient. A gradient program at a flow rate of 8 mL/min and column temperature of 25 °C was used to achieve elution with solvent A (0.1% trifluoroacetic acid (TFA) in water (v/v)) and solvent B (0.1% TFA in 100% acetonitrile (ACN) (v/v)). The elution program was as follows: (1) At 0–73 min, 100% solvent A to 0% solvent B; (2) at 73–77 min, 40% solvent A to 60% solvent B; (3) at 77–93 min, 10% solvent A to 90% solvent B; (4) at 93–105 min, 100% solvent A to 0% solvent B. Data collected were the retention time of the major fraction for each peptide in minutes as RP-HPLC ElutionTime (ElutionTime). Absorbance was detected at 254 nm, and fractions were collected manually. The fractions collected were spun in a speed-vac to remove ACN and the contents lyophilized. After freeze-drying for 24 h the peptides were dissolved in 10% (v/v) acetic acid before being lyophilized for a second time and then stored at −20 °C.
Molecular descriptors used in the QSAR analysis included: charge, sequence length, overall lipophilicity (L), lipophilicity contributed by the polar or nonpolar residues (LP and LN), summation of the side chain surface areas of the total peptide, polar or nonpolar residues (SCSA, SCSAP, and SCSAN), the molecular weight of the entire peptide, polar or nonpolar residues (Mw, MwP, and MwN), count of small lipophilic residues (CSL) or aromatic residues (CAR), the total number of hydrogen bond donor and acceptor centers (HBtot, HBdon, and HBacc), the total number of rotatable bonds (#RotBonds) and various amphipathicity descriptors (LP/L, LP/LN, L/LN, Q/L, Q/LN, SCSAP/SCSAN, MwP/MwN, Q/CSL, and Q/CAR) (Suppl. Table S1). Experimentally determined characteristics included ElutionTime as an indicator of overall peptide hydrophobicity and the CD structure of each peptide determined in POPG/POPE lipids representing Gram-negative membranes, POPG lipids for Gram-positive membranes, and SDS micelles for fungal membranes. AMPs with an α-helical structure were labeled 4, β-sheets were labeled 3, β-turns and mixed conformations were labeled 2, and disordered structures were labeled 1.

HaCat cell line = test: In vitro HaCat cytotoxicity (MTT); format: cell-based, human; settings: 21 h exposure, OD570, relative to untreated control
How it was run: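 HaCat keratinocytes were first screened with peptide at 256 μg/mL for 21 h at 37 °C, and a dose-response was run only when cytotoxicity reached p < 0.0001. Viability was read by MTT (3 h, OD570) relative to untreated control, and LC50 was taken from the dose-response curves.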

[2] = MHB, 37 °C, 20 h, OD600, min. three biological repeats
[3] = C. auris TDG 1912, 50% growth inhibition, RPMI 1640 + 2% glucose, 37 °C, 20 h, OD600
[4] = C. auris TDG 1912, 90% growth inhibition, RPMI 1640 + 2% glucose, 37 °C, 20 h, OD600

| Compound | Modal MIC (P. aeruginosa PAO1; [2]) | Modal MIC (P. aeruginosa PAO1; shown in µM) | Modal MIC50 (C. auris TDG 1912; C. auris TDG 1912, shown in µM) | Modal MIC90 (C. auris TDG 1912; C. auris TDG 1912, shown in µM) | ElutionTime (RP-HPLC retention time of major fraction) [1] | Modal MIC50 (C. auris TDG 1912; [3]) | Modal MIC90 (C. auris TDG 1912; [4]) | Modal MIC50 (C. auris TDG 1912; TDG 1912, 20 h) | Modal MIC90 (C. auris TDG 1912; TDG 1912, 20 h) | % HaCat cell death at initial screening (256μg/mL) ± SD (HaCat cell line) |
| --- | --- | --- | --- | --- | --- | --- | --- | --- | --- | --- |
| KCLTLRSLKKTLKFCASGRT-NH2 [X1-20a, novel amidated frog AMP derivative, Xenopus laevis] | > 128 µg/mL | > 55 µM | > 55 µM | > 55 µM | 31,7 min | – | – | – | – | – |
| CC[C@H](C)[C@H](NC(=O)CNC(=O)[C@@H](N)CCCNC(=N)N)C(=O)N[C@@H](CCCNC(=N)N)C(=O)NCC(=O)N[C@@H](Cc1ccc(O)cc1)C(=O)N[C@@H](CCCCN)C(=O)NCC(=O)NCC(=O)N[C@@H](Cc1ccc(O)cc1)C(=O)N[C@@H](CS)C(=O)N[C@H](C(=O)NCC(=O)N[C@@H](CCCNC(=N)N)C(=O)N[C@@H](Cc1ccccc1)C(=O)N[C@@H](CCCCN)C(=O)N[C@@H](CCC(N)=O)C(=O)N[C@H](C(=O)N[C@@H](CS)C(=O)N[C@@H](CCCCN)C(=O)N[C@@H](CS)C(=O)N[C@@H](Cc1ccc(O)cc1)C(=O)O)[C@@H](C)O)[C@@H](C)O [OmDefB] (H-RGIRGYKGGYCTGRFKQTCKCY-OH; N-terminus and C-terminus assumed) | > 128 µg/mL | > 49.9 µM | > 49.9 µM | > 49.9 µM | 25 min | > 128 µg/mL | > 128 µg/mL | – | – | – |
| CC[C@H](C)[C@H](NC(=O)[C@@H](N)Cc1c[nH]c2ccccc12)C(=O)N[C@@H](CCCCN)C(=O)N[C@@H](CO)C(=O)N[C@H](C(=O)N[C@@H](C)C(=O)N[C@@H](CCCCN)C(=O)N[C@@H](CCCCN)C(N)=O)[C@@H](C)O [Opis8a] (H-WIKSTAKK-NH2) | > 128 µg/mL | > 133.2 µM | > 133.2 µM | > 133.2 µM | – | > 128 µg/mL | > 128 µg/mL | – | – | – |
| CC[C@H](C)[C@H](NC(=O)[C@H](CCCCN)NC(=O)[C@H](CC(C)C)NC(=O)[C@H](C)NC(=O)[C@H](C)NC(=O)[C@H](CCCCN)NC(=O)[C@H](CC(C)C)NC(=O)[C@H](C)NC(=O)[C@@H](N)CCCCN)C(=O)NCC(N)=O [CPF-P3-10a] (H-KALKAALKIG-NH2) | > 128 µg/mL | > 122 µM | > 122 µM | > 122 µM | – | > 128 µg/mL | > 128 µg/mL | – | – | – |
| CC(C)C[C@H](NC(=O)[C@H](CCCCN)NC(=O)[C@H](CO)NC(=O)[C@H](CCCCN)NC(=O)[C@@H](N)Cc1c[nH]c2ccccc12)C(=O)N[C@@H](C)C(=O)N[C@@H](CCCCN)C(=O)N[C@@H](CCCCN)C(N)=O [PS-PB-8a] (H-WKSKLAKK-NH2) | > 128 µg/mL | > 127.2 µM | > 127.2 µM | > 127.2 µM | – | > 128 µg/mL | > 128 µg/mL | – | – | – |
| CC[C@H](C)[C@H](NC(=O)CNC(=O)[C@@H](N)CCCCN)C(=O)N[C@@H](CCCNC(=N)N)C(=O)NCC(=O)N[C@@H](Cc1ccc(O)cc1)C(=O)N[C@@H](CCCCN)C(=O)NCC(=O)NCC(=O)N[C@@H](Cc1ccc(O)cc1)C(=O)N[C@@H](CS)C(=O)N[C@@H](CCCCN)C(=O)NCC(=O)N[C@@H](C)C(=O)N[C@@H](Cc1ccccc1)C(=O)N[C@@H](CCCCN)C(=O)N[C@@H](CCC(N)=O)C(=O)N[C@H](C(=O)N[C@@H](CS)C(=O)N[C@@H](CCCCN)C(=O)N[C@@H](CS)C(=O)N[C@@H](Cc1ccc(O)cc1)C(=O)O)[C@@H](C)O [Os] (H-KGIRGYKGGYCKGAFKQTCKCY-OH; N-terminus and C-terminus assumed) | > 128 µg/mL | > 51.7 µM | > 51.7 µM | > 51.7 µM | 24,7 min | > 128 µg/mL | > 128 µg/mL | – | – | – |
| CC[C@H](C)[C@H](NC(=O)CNC(=O)[C@@H](N)CCCCN)C(=O)N[C@@H](CCCNC(=N)N)C(=O)NCC(=O)N[C@@H](Cc1ccc(O)cc1)C(=O)N[C@@H](CCCCN)C(=O)NCC(=O)NCC(=O)N[C@@H](Cc1ccc(O)cc1)C(=O)N[C@@H](CS)C(=O)N[C@@H](CCCCN)C(=O)NCC(=O)N[C@@H](C)C(=O)N[C@@H](Cc1ccccc1)C(=O)N[C@@H](CCCCN)C(=O)N[C@@H](CCC(N)=O)C(=O)N[C@H](C(=O)N[C@@H](CS)C(=O)N[C@@H](CCCCN)C(=O)N[C@@H](CS)C(=O)N[C@@H](Cc1ccc(O)cc1)C(N)=O)[C@@H](C)O [Osa] (H-KGIRGYKGGYCKGAFKQTCKCY-NH2; N-terminus assumed) | > 128 µg/mL | > 51.7 µM | > 51.7 µM | > 51.7 µM | 24,5 min | > 128 µg/mL | > 128 µg/mL | – | – | – |
| CC(C)C[C@H](NC(=O)[C@H](CCCCN)NC(=O)[C@H](CO)NC(=O)[C@H](CCCCN)NC(=O)[C@H](Cc1c[nH]c2ccccc12)NC(=O)[C@H](C)NC(=O)[C@H](CCCCN)NC(=O)[C@@H](N)CCCCN)C(=O)N[C@@H](C)C(=O)N[C@@H](CCCCN)C(=O)N[C@@H](CCCCN)C(=O)N[C@@H](CC(C)C)C(=O)N[C@@H](CCCNC(=N)N)C(=O)N[C@@H](C)C(=O)N[C@@H](CCCCN)C(=O)NCC(=O)N[C@@H](CCCCN)C(N)=O [PS-PB-14a] (H-KKAWKSKLAKKLRAKGK-NH2) | > 128 µg/mL | > 63.8 µM | > 63.8 µM | > 63.8 µM | – | > 128 µg/mL | > 128 µg/mL | – | – | – |
| CC[C@H](C)[C@H](N)C(=O)N[C@@H](CCCNC(=N)N)C(=O)NCC(=O)N[C@@H](Cc1ccc(O)cc1)C(=O)N[C@@H](CCCCN)C(=O)NCC(=O)NCC(=O)N[C@@H](Cc1ccc(O)cc1)C(=O)N[C@@H](CS)C(=O)N[C@@H](CCCCN)C(N)=O [Os(3-12)a] (H-IRGYKGGYCK-NH2) | > 128 µg/mL | > 112 µM | > 112 µM | > 112 µM | – | > 128 µg/mL | > 128 µg/mL | – | – | – |
| CC[C@H](C)[C@H](NC(=O)[C@H](CCCCN)NC(=O)[C@H](CC(C)C)NC(=O)[C@H](C)NC(=O)[C@H](C)NC(=O)[C@H](CCCCN)NC(=O)[C@H](CC(C)C)NC(=O)[C@H](C)NC(=O)[C@@H](N)CCCCN)C(=O)NCC(=O)N[C@@H](C)C(=O)N[C@@H](CC(N)=O)C(N)=O [CPF-P3-12a] (H-KALKAALKIGAN-NH2) | > 128 µg/mL | > 103.8 µM | > 103.8 µM | > 103.8 µM | – | > 128 µg/mL | > 128 µg/mL | – | – | – |
| CC(C)[C@H](NC(=O)CNC(=O)[C@H](CCCNC(=N)N)NC(=O)[C@H](CCCNC(=N)N)NC(=O)[C@H](CS)NC(=O)[C@@H](NC(=O)[C@H](CS)NC(=O)[C@@H](N)CCCNC(=N)N)C(C)C)C(=O)N[C@@H](CS)C(=O)N[C@@H](CCCNC(=N)N)C(=O)N[C@@H](CS)C(=O)N[C@H](C(=O)N[C@@H](CS)C(=O)N[C@@H](CCCNC(=N)N)C(=O)N[C@@H](CCCNC(=N)N)C(N)=O)C(C)C [BTD15a] (H-RCVCRRGVCRCVCRR-NH2; N-terminus assumed) | – | – | – | – | 20 min | – | – | > 70.2 µM | > 70.2 µM | 20% |
